Data published in patent US20170190671A1, “BIS(ARYL)CATECHOL DERIVATIVES AS HERBICIDES” (E I DU PONT DE NEMOURS AND COMPANY, priority 2014, published 2017).

Columns and labels:
Experiment in all cases: Test C preemergence
Assay type in all cases: in vivo
[1] = tested on: Italian ryegrass (Lolium multiflorum); settings: Lolium multiflorum, pre-emergence, 336 h, scale 0 to 100, read-out: Plant response rating, Ryegrass, Italian
Method in brief: (§1)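 Seeds in loam-sand soil were treated preemergence, and plants at the 1- to 4-leaf stage (2-18 cm) in peat-based medium were sprayed postemergence, with test chemicals in a non-phytotoxic solvent containing surfactant. After 13-15 days in a greenhouse, response was rated visually against controls from 0 (no effect) to 100 (complete control).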

[2] = tested on: barnyardgrass (Echinochloa crus-galli); settings: Echinochloa crus-galli, pre-emergence, read-out: Plant response rating, Barnyardgrass
Method in brief: as §1

[3] = tested on: blackgrass (Alopecurus myosuroides); settings: Alopecurus myosuroides, pre-emergence, 336 h, scale 0 to 100, read-out: Plant response rating, Blackgrass
Method in brief: as §1

[4] = tested on: corn (Zea mays); settings: Zea mays, pre-emergence, 336 h, scale 0 to 100
Method in brief: as §1

[5] = tested on: galium (catchweed bedstraw, Galium aparine); settings: Galium, pre-emergence, 336 h, scale 0 to 100, read-out: Plant response rating, Galium
Method in brief: as §1

[6] = tested on: giant foxtail (Setaria faberii); settings: Setaria faberi, pre-emergence, 336 h, scale 0 to 100, read-out: Plant response rating, Foxtail, Giant
Method in brief: as §1

[7] = tested on: lambsquarters (Chenopodium album); settings: Chenopodium album, pre-emergence, 336 h, scale 0 to 100, read-out: Plant response rating, Lambsquarters
Method in brief: as §1

[8] = tested on: large (Lg) crabgrass (Digitaria sanguinalis); settings: Digitaria sanguinalis, pre-emergence, 336 h, scale 0 to 100, read-out: Plant response rating, Crabgrass, Large
Method in brief: as §1

[9] = tested on: oilseed rape (Brassica napus); settings: Brassica napus, pre-emergence, scale 0 to 100, read-out: Plant response rating, Oilseed Rape
Method in brief: as §1

[10] = tested on: ragweed (common ragweed, Ambrosia elatior); settings: Ambrosia artemisiifolia, pre-emergence, 336 h, scale 0 to 100, read-out: Plant response rating, Ragweed
Method in brief: as §1

[11] = tested on: soybean (Glycine max); settings: Glycine max, pre-emergence, scale 0 to 100, read-out: Plant response rating, Soybean
Method in brief: as §1

[12] = tested on: velvetleaf (Abutilon theophrasti); settings: Abutilon theophrasti, pre-emergence, scale 0 to 100, read-out: Plant response rating, Velvetleaf
Method in brief: as §1

[13] = tested on: waterhemp (common waterhemp, Amaranthus rudis); settings: Amaranthus tuberculatus, pre-emergence, scale 0 to 100, read-out: Plant response rating, Waterhemp
Method in brief: as §1

[14] = tested on: winter wheat (Triticum aestivum); settings: Triticum aestivum, pre-emergence, 336 h, scale 0 to 100, read-out: Plant response rating, Wheat
Method in brief: as §1

[15] = tested on: yellow nutsedge (Cyperus esculentus); settings: Cyperus, pre-emergence, 336 h, scale 0 to 100, read-out: Plant response rating, Nutsedge, Yellow
Method in brief: as §1

Clc1cnc(Oc2cccc(Br)c2Oc2ncc(Cl)cn2)nc1 [Compound 19, 2,2′-[[3-bromo-1,2-phenylene]bis(oxy)]bis[5-chloropyrimidine]]
pest or weed control at 31 g/ha ([1]; 31 g ai/ha, preemergence): 50%
pest or weed control at 62 g/ha ([1]; 62 g ai/ha, preemergence): 70%
pest or weed control at 125 g/ha ([1]; 125 g ai/ha, preemergence): 90%
pest or weed control at 16 g/ha ([1]; Preemergence, 16 g ai/ha): 5%
pest or weed control at 31 g/ha ([2]; 31 g ai/ha, preemergence, scale 0 to 100): 55%
pest or weed control at 62 g/ha ([2]; 62 g ai/ha, preemergence, scale 0 to 100): 100%
pest or weed control at 125 g/ha ([2]; 125 g ai/ha, preemergence, scale 0 to 100): 100%
pest or weed control at 16 g/ha ([2]; Preemergence, 16 g ai/ha, scale 0 to 100 (0 no effect, 100 complete control)): 15%
pest or weed control at 31 g/ha ([3]; 31 g ai/ha, preemergence): 40%
pest or weed control at 62 g/ha ([3]; 62 g ai/ha, preemergence): 90%
pest or weed control at 125 g/ha ([3]; 125 g ai/ha, preemergence): 95%
pest or weed control at 16 g/ha ([3]; Preemergence, 16 g ai/ha): 30%
Corn plant response rating (crop injury, 0 = no effect, 100 = complete kill) at 31 g/ha ([4]; 31 g ai/ha, preemergence): 25%
Corn plant response rating (crop injury, 0 = no effect, 100 = complete kill) at 62 g/ha ([4]; 62 g ai/ha, preemergence): 80%
Corn plant response rating (crop injury, 0 = no effect, 100 = complete kill) at 125 g/ha ([4]; 125 g ai/ha, preemergence): 90%
Corn plant response rating (crop injury, 0 = no effect, 100 = complete kill) at 16 g/ha ([4]; Preemergence, 16 g ai/ha): 5%
pest or weed control at 31 g/ha ([5]; 31 g ai/ha, preemergence): 100%
pest or weed control at 62 g/ha ([5]; 62 g ai/ha, preemergence): 100%
pest or weed control at 125 g/ha ([5]; 125 g ai/ha, preemergence): 100%
pest or weed control at 16 g/ha ([5]; Preemergence, 16 g ai/ha): 85%
pest or weed control at 31 g/ha ([6]; 31 g ai/ha, preemergence): 100%
pest or weed control at 62 g/ha ([6]; 62 g ai/ha, preemergence): 100%
pest or weed control at 125 g/ha ([6]; 125 g ai/ha, preemergence): 100%
pest or weed control at 16 g/ha ([6]; Preemergence, 16 g ai/ha): 60%
pest or weed control at 31 g/ha ([7]; 31 g ai/ha, preemergence): 100%
pest or weed control at 62 g/ha ([7]; 62 g ai/ha, preemergence): 100%
pest or weed control at 125 g/ha ([7]; 125 g ai/ha, preemergence): 100%
pest or weed control at 16 g/ha ([7]; Preemergence, 16 g ai/ha): 98%
pest or weed control at 31 g/ha ([8]; 31 g ai/ha, preemergence): 100%
pest or weed control at 62 g/ha ([8]; 62 g ai/ha, preemergence): 100%
pest or weed control at 125 g/ha ([8]; 125 g ai/ha, preemergence): 100%
pest or weed control at 16 g/ha ([8]; Preemergence, 16 g ai/ha): 98%
plant injury at 31 g/ha ([9]; 31 g ai/ha, preemergence): 85%
plant injury at 62 g/ha ([9]; 62 g ai/ha, preemergence): 98%
plant injury at 125 g/ha ([9]; 125 g ai/ha, preemergence): 100%
plant injury at 16 g/ha ([9]; Preemergence, 16 g ai/ha): 30%
pest or weed control at 31 g/ha ([10]; 31 g ai/ha, preemergence): 30%
pest or weed control at 62 g/ha ([10]; 62 g ai/ha, preemergence): 55%
pest or weed control at 125 g/ha ([10]; 125 g ai/ha, preemergence): 60%
pest or weed control at 16 g/ha ([10]; Preemergence, 16 g ai/ha): 0%
plant injury at 31 g/ha ([11]; 31 g ai/ha, preemergence): 50%
plant injury at 62 g/ha ([11]; 62 g ai/ha, preemergence): 90%
plant injury at 125 g/ha ([11]; 125 g ai/ha, preemergence): 80%
plant injury at 16 g/ha ([11]; Preemergence, 16 g ai/ha): 25%
pest or weed control at 31 g/ha ([12]; 31 g ai/ha, preemergence): 98%
pest or weed control at 62 g/ha ([12]; 62 g ai/ha, preemergence): 100%
pest or weed control at 125 g/ha ([12]; 125 g ai/ha, preemergence): 100%
pest or weed control at 16 g/ha ([12]; Preemergence, 16 g ai/ha): 60%
pest or weed control at 31 g/ha ([13]; 31 g ai/ha, preemergence): 100%
pest or weed control at 62 g/ha ([13]; 62 g ai/ha, preemergence): 100%
pest or weed control at 125 g/ha ([13]; 125 g ai/ha, preemergence): 100%
pest or weed control at 16 g/ha ([13]; Preemergence, 16 g ai/ha): 100%
plant injury at 31 g/ha ([14]; 31 g ai/ha, preemergence): 25%
plant injury at 62 g/ha ([14]; 62 g ai/ha, preemergence): 40%
plant injury at 125 g/ha ([14]; 125 g ai/ha, preemergence): 85%
plant injury at 16 g/ha ([14]; Preemergence, 16 g ai/ha): 0%
pest or weed control at 31 g/ha ([15]; 31 g ai/ha, preemergence): 5%
pest or weed control at 62 g/ha ([15]; 62 g ai/ha, preemergence): 20%
pest or weed control at 125 g/ha ([15]; 125 g ai/ha, preemergence): 55%
pest or weed control at 16 g/ha ([15]; Preemergence, 16 g ai/ha): 0%
